Assay results published in patent publication US7138361B2, “Herbicidal heterocycles” (E. I. du Pont de Nemours and Company, priority 2000, dated 2006).

Key:
Format in all cases: in vivo
[1] = test system: rice (Oryza saliva); experiment: Test C flooded paddy test; conditions: for Rice plant response rating: Flooded Paddy, scale 0 to 100, 0 no effect, 100 complete control; for Plant response rating, Rice: flooded paddy test, scale 0 to 100 (0 no effect, 100 complete control)
How it was run: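 2-leaf-stage plants, flooded paddy; treated; greenhouse 12–14 days; compared with controls by eye; rated 0–100 (0 none, 100 complete control).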

[2] = test system: velvetleaf (Abutilon theophrasti); experiment: Test B postemergence; conditions: 13 to 15 days
How it was run: (§1)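 Greenhouse test: chemicals are formulated in a surfactant-containing non-phytotoxic solvent and applied either preemergence to planted seeds or postemergence to plants 2 to 18 cm tall. Response is rated visually versus controls after 13 to 15 days, 0 meaning no effect and 100 complete control.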

[3] = test system: wheat (Triticum aestivum); experiment: Test B postemergence; conditions: 13 to 15 days
How it was run: as §1

[4] = test system: lambsquarters (Chenopodium album); experiment: Test B postemergence; conditions: 13 to 15 days
How it was run: as §1

[5] = test system: crabgrass (Digitaria sanguinalis); experiment: Test B postemergence; conditions: 13 to 15 days
How it was run: as §1

[6] = test system: corn (Zea mays); experiment: Test B postemergence; conditions: 13 to 15 days
How it was run: as §1

[7] = test system: giant foxtail (Setaria faberii); experiment: Test B postemergence; conditions: 13 to 15 days
How it was run: as §1

[8] = test system: blackgrass (Alopecurus myosuroides); experiment: Test B postemergence; conditions: 13 to 15 days
How it was run: as §1

[9] = test system: morning glory (Ipomoea hederacea); experiment: Test B postemergence; conditions: 13 to 15 days
How it was run: as §1

[10] = test system: wild oat (Avena fatua); experiment: Test B postemergence; conditions: 13 to 15 days
How it was run: as §1

[11] = test system: Surinam grass (Brachiaria decumbens); experiment: Test B postemergence; conditions: 13 to 15 days
How it was run: as §1

[12] = test system: cocklebur (Xanthium strumarium); experiment: Test B postemergence; conditions: 13 to 15 days
How it was run: as §1

[13] = test system: pigweed (Amaranthus retroflexus); experiment: Test B postemergence; conditions: 13 to 15 days
How it was run: as §1

[14] = test system: barnyardgrass (Echinochloa crus-galli); experiment: Test B postemergence; conditions: 13 to 15 days
How it was run: as §1

[15] = test system: velvetleaf (Abutilon theophrasti); experiment: Test B preemergence; conditions: scale 0 to 100, 0 no effect, 100 complete control
How it was run: as §1

[16] = test system: lambsquarters (Chenopodium album); experiment: Test B preemergence; conditions: scale 0 to 100, 0 no effect, 100 complete control
How it was run: as §1

[17] = test system: crabgrass (Digitaria sanguinalis); experiment: Test B preemergence; conditions: scale 0 to 100, 0 no effect, 100 complete control
How it was run: as §1

[18] = test system: corn (Zea mays); experiment: Test B preemergence; conditions: scale 0 to 100, 0 no effect, 100 complete control
How it was run: as §1

[19] = test system: giant foxtail (Setaria faberii); experiment: Test B preemergence; conditions: scale 0 to 100, 0 no effect, 100 complete control
How it was run: as §1

[20] = test system: rice (Oryza saliva); experiment: Test B preemergence; conditions: scale 0 to 100, 0 no effect, 100 complete control
How it was run: as §1

[21] = test system: morning glory (Ipomoea hederacea); experiment: Test B preemergence; conditions: scale 0 to 100, 0 no effect, 100 complete control
How it was run: as §1

[22] = test system: Surinam grass (Brachiaria decumbens); experiment: Test B preemergence; conditions: scale 0 to 100, 0 no effect, 100 complete control
How it was run: as §1

[23] = test system: cocklebur (Xanthium strumarium); experiment: Test B preemergence; conditions: scale 0 to 100, 0 no effect, 100 complete control
How it was run: as §1

[24] = test system: pigweed (Amaranthus retroflexus); experiment: Test B preemergence; conditions: scale 0 to 100, 0 no effect, 100 complete control
How it was run: as §1

[25] = test system: barnyardgrass (Echinochloa crus-galli); experiment: Test B preemergence; conditions: scale 0 to 100, 0 no effect, 100 complete control
How it was run: as §1

[26] = Rate 125 g/ha, scale 0 (no effect) to 100 (complete control)
[27] = Rate 500 g/ha, scale 0 to 100, 0 is no effect, 100 is complete control

Structure (SMILES): O=C1C(n2ccc(C3CC3)n2)SCN1c1cccc(C(F)(F)F)c1 (stereo not shown) [Compound 26]
- Rice plant response rating ([1]; Rate 250 g/ha): 80
- Rice plant response rating ([1]; Rate 500 g/ha): 80
- Plant response rating, Rice ([1]; Rate 62 g/ha): 0
- Plant response rating, Rice ([1]; Rate 125 g/ha): 40
- Plant response rating, Velvetleaf [2, 26]: 20
- Plant response rating, Velvetleaf [2, 27]: 20
- Plant response rating, Wheat [3, 26]: 0
- Plant response rating, Wheat [3, 27]: 0
- Plant response rating, Lambsquarters [4, 26]: 80
- Plant response rating, Lambsquarters [4, 27]: 80
- Plant response rating, Crabgrass [5, 26]: 0
- Plant response rating, Crabgrass [5, 27]: 20
- Plant response rating, Corn [6, 26]: 0
- Plant response rating, Corn [6, 27]: 70
- Plant response rating, Foxtail, Giant [7, 26]: 20
- Plant response rating, Foxtail, Giant [7, 27]: 50
- Plant response rating, Blackgrass [8, 26]: 0
- Plant response rating, Blackgrass [8, 27]: 0
- Plant response rating, Morningglory [9, 26]: 0
- Plant response rating, Morningglory [9, 27]: 10
- Plant response rating, Wild Oat [10, 26]: 0
- Plant response rating, Wild Oat [10, 27]: 0
- Plant response rating, Surinam grass [11, 26]: 20
- Plant response rating, Surinam grass [11, 27]: 20
- Plant response rating, Cocklebur [12, 26]: 50
- Plant response rating, Cocklebur [12, 27]: 60
- Plant response rating, Pigweed [13, 26]: 0
- Plant response rating, Pigweed [13, 27]: 60
- Plant response rating, Barnyardgrass [14, 26]: 0
- Plant response rating, Barnyardgrass [14, 27]: 80
- Plant response rating, Velvetleaf ([15]; Preemergence, Rate 500 g/ha): 0
- Plant response rating, Velvetleaf ([15]; preemergence, Rate 125 g/ha): 0
- Plant response rating, Lambsquarters ([16]; Preemergence, Rate 500 g/ha): 100
- Plant response rating, Lambsquarters ([16]; preemergence, Rate 125 g/ha): 100
- Plant response rating, Crabgrass ([17]; Preemergence, Rate 500 g/ha): 100
- Plant response rating, Crabgrass ([17]; preemergence, Rate 125 g/ha): 100
- Plant response rating, Corn ([18]; Preemergence, Rate 500 g/ha): 70
- Plant response rating, Corn ([18]; preemergence, Rate 125 g/ha): 10
- Plant response rating, Foxtail, Giant ([19]; Preemergence, Rate 500 g/ha): 100
- Plant response rating, Foxtail, Giant ([19]; preemergence, Rate 125 g/ha): 100
- Plant response rating, Rice ([20]; Preemergence, Rate 500 g/ha): 80
- Plant response rating, Rice ([20]; preemergence, Rate 125 g/ha): 40
- Plant response rating, Morningglory ([21]; Preemergence, Rate 500 g/ha): 0
- Plant response rating, Morningglory ([21]; preemergence, Rate 125 g/ha): 0
- Plant response rating, Surinam grass ([22]; Preemergence, Rate 500 g/ha): 70
- Plant response rating, Surinam grass ([22]; preemergence, Rate 125 g/ha): 40
- Plant response rating, Cocklebur ([23]; Preemergence, Rate 500 g/ha): 0
- Plant response rating, Cocklebur ([23]; preemergence, Rate 125 g/ha): 0
- Plant response rating, Pigweed ([24]; Preemergence, Rate 500 g/ha): 100
- Plant response rating, Pigweed ([24]; preemergence, Rate 125 g/ha): 100
- Plant response rating, Barnyardgrass ([25]; Preemergence, Rate 500 g/ha): 100
- Plant response rating, Barnyardgrass ([25]; preemergence, Rate 125 g/ha): 100
